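Compound exposure: 48 hours, 5 concentrations, 96-well plates. TGI: concentration producing complete growth inhibition.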

Test systems include HCC-2998 colon; COLO 205 colon; BT-549 breast; HCT-15 colon; HOP-92 NSCLC; HL-60(TB) leukemia; M14 melanoma; SR leukemia; SN12C renal; HS 578T breast; MDA-N.
Common to all, as to test: growth of human tumour cells (NCI), 48 h

As to `C[C@]12CC[C@H]3[C@@H](CC=C4C[C@@H](N5CCCC5)CC[C@@]43C)[C@@H]1C[C@H](N1CCOCC1)[C@@H]2O`, the TGI in the assay on HCC-2998 colon, with COLO 205 colon, with BT-549 breast, with HCT-15 colon, with HOP-92 NSCLC and with HL-60(TB) leukemia was above 100 µM throughout. For the same molecule, the TGI was above 10 µM in the assay with M14 melanoma; 71.5 µM in the assay on SR leukemia; above 100 µM in the assay with SN12C renal; above 100 µM with HS 578T breast; above 100 µM with MDA-N.

Consider `Nc1nc(Cl)c(N)c(NCC2(CO)CC(OCc3ccccc3)C2)n1` (configuration not stated), for which the TGI in the assay with HCC-2998 colon, in the assay with COLO 205 colon, in the assay on BT-549 breast, with HCT-15 colon, in the assay on HOP-92 NSCLC and in the assay with HL-60(TB) leukemia was above 100 µM in each case. Also, the TGI with M14 melanoma, in the assay on SR leukemia, in the assay on SN12C renal, with HS 578T breast and in the assay with MDA-N was above 100 µM throughout.

Consider `O=C1NC(SSC2=NNC3(C(=O)N2)c2ccccc2-c2ccccc23)=NNC12c1ccccc1-c1ccccc12`, for which the TGI with HCC-2998 colon, in the assay on COLO 205 colon, in the assay with BT-549 breast, in the assay on HCT-15 colon, in the assay with HOP-92 NSCLC and in the assay with HL-60(TB) leukemia was above 10 µM each time. For the same molecule, the TGI in the assay with M14 melanoma, in the assay with SR leukemia, with SN12C renal, in the assay with HS 578T breast and in the assay with MDA-N was above 10 µM in each case.

On to `COC(=O)CCC(=O)NC1=C(Nc2ccc(OC)cc2)C(=O)c2ccccc2C1=O`, for which the TGI was 35.7 µM with HCC-2998 colon; 28 µM in the assay on COLO 205 colon; 29 µM with BT-549 breast; 21.4 µM in the assay on HCT-15 colon; 27 µM with HOP-92 NSCLC; above 68 µM in the assay with HL-60(TB) leukemia. The TGI in the assay with M14 melanoma was 19.7 µM; with SR leukemia it was above 75.9 µM; in the assay on SN12C renal it was 27.3 µM; in the assay with HS 578T breast, 72.6 µM; in the assay on MDA-N, 3.44 µM.

On to `Nn1c(COc2cccc(OCc3n[nH]c(=S)n3N)c2)n[nH]c1=S`, for which the TGI in the assay on HCC-2998 colon, in the assay with COLO 205 colon, with BT-549 breast, in the assay with HCT-15 colon, with HOP-92 NSCLC and with HL-60(TB) leukemia was above 100 µM in each case. Moreover, the TGI is above 100 µM in the assay with M14 melanoma; 34.6 µM with SR leukemia; above 100 µM in the assay with SN12C renal; above 100 µM in the assay with HS 578T breast; above 100 µM in the assay with MDA-N.

Consider `CCCCc1ccc(Nc2nc3c(ncn3C3CC(O)C(CN=[N+]=[N-])O3)c(=O)[nH]2)cc1` (configuration not stated), for which the TGI in the assay on HCC-2998 colon, in the assay with COLO 205 colon, with BT-549 breast, in the assay with HCT-15 colon, with HOP-92 NSCLC and in the assay on HL-60(TB) leukemia was above 100 µM each time. For the same molecule, the TGI in the assay with M14 melanoma, in the assay on SR leukemia, in the assay on SN12C renal, in the assay with HS 578T breast and in the assay with MDA-N was above 100 µM in each case.

Take `S=C(NC1=NCC(CN2CCN(c3ccccc3)CC2)O1)Nc1ccccc1` (configuration not stated): the TGI in the assay with HCC-2998 colon, with COLO 205 colon, with BT-549 breast, in the assay with HCT-15 colon, in the assay with HOP-92 NSCLC and in the assay on HL-60(TB) leukemia was above 100 µM each time. Moreover, the TGI with M14 melanoma, in the assay with SR leukemia, in the assay with SN12C renal, in the assay on HS 578T breast and with MDA-N was above 100 µM throughout.
